Laboratory results from PubChem BioAssay AID248 (DTP/NCI, 2004).
Several values for one entry are separate records, joined by “and”; a condition that tells them apart may be missing. Equal values may be shown once. Toxic doses and inconclusive results are not listed.

System: L1210 leukemia ip in BDF1 mice, survival T/C
Test: NCI In Vivo Anticancer Drug Screen. Data for tumor model L1210 Leukemia (intraperitoneal) in B6D2F1 (BDF1) mice
Conditions: endpoint: mean survival time, higher = longer survival
Procedure, shortened: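 Tumor cells were implanted, animals were treated, and survival was followed. The result divides the treated measurement by the vehicle-control measurement.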

[1] = dose: 100.0 mg/kg/injection, schedule: Q01DX001 (ip), vehicle: saline
[2] = dose: 200.0 mg/kg/injection, schedule: Q01DX001 (ip), vehicle: saline
[3] = dose: 400.0 mg/kg/injection, schedule: Q01DX001 (ip), vehicle: saline
[4] = dose: 100.0 mg/kg/injection, schedule: Q01DX009 (ip), vehicle: Klucel (hydroxypropylcellulose) (HPC)
[5] = dose: 200.0 mg/kg/injection, schedule: Q01DX009 (ip), vehicle: Klucel (hydroxypropylcellulose) (HPC)
[6] = dose: 400.0 mg/kg/injection, schedule: Q01DX009 (ip), vehicle: Klucel (hydroxypropylcellulose) (HPC)
[7] = dose: 100.0 mg/kg/injection, schedule: Q04DX003 (ip), vehicle: Klucel (hydroxypropylcellulose) (HPC)
[8] = dose: 200.0 mg/kg/injection, schedule: Q04DX003 (ip), vehicle: Klucel (hydroxypropylcellulose) (HPC)
[9] = dose: 400.0 mg/kg/injection, schedule: Q04DX003 (ip), vehicle: Klucel (hydroxypropylcellulose) (HPC)
[10] = dose: 200.0 mg/kg/injection, schedule: Q01DX009 (ip), vehicle: saline with Tween-80
[11] = dose: 100.0 mg/kg/injection, schedule: Q01DX009 (ip), vehicle: saline
[12] = dose: 200.0 mg/kg/injection, schedule: Q01DX009 (ip), vehicle: saline

For `NNC(=O)CNc1cccc(Br)c1`, the T/C (dose: 50.0 mg/kg/injection, schedule: Q04DX002 (ip), vehicle: Klucel (hydroxypropylcellulose) (HPC)) was 101 % of control and 92 % of control, the T/C (dose: 100.0 mg/kg/injection, schedule: Q04DX002 (ip), vehicle: Klucel (hydroxypropylcellulose) (HPC)) was 114 % of control and 120 % of control and the T/C (dose: 200.0 mg/kg/injection, schedule: Q04DX002 (ip), vehicle: Klucel (hydroxypropylcellulose) (HPC)) was 108 % of control.
With `CC(C)=NNc1cccc2cccc(N)c12` the T/C [1] was 97 % of control, the T/C [2] was 95 % of control and the T/C [3] was 97 % of control.
In the case of `CSc1ccc(C)cc1C`, the T/C [4] is reported as 105 % of control, the T/C [5] is reported as 103 % of control and the T/C [6] is reported as 105 % of control.
`COc1ccc(C(=O)N/N=C/c2cccc3ccccc23)cc1` was tested, and the T/C [4] was 105 % of control, the T/C [5] was 103 % of control and the T/C [6] was 108 % of control.
With `O=C(O)CC1(c2ccccc2)OC(=O)c2ccccc21` (stereo unspecified) the T/C (dose: 50.0 mg/kg/injection, schedule: Q04DX002 (ip), vehicle: saline with Tween-80) was 92 % of control, the T/C (dose: 100.0 mg/kg/injection, schedule: Q04DX002 (ip), vehicle: saline with Tween-80) was 92 % of control and the T/C (dose: 200.0 mg/kg/injection, schedule: Q04DX002 (ip), vehicle: saline with Tween-80) was 99 % of control. For the same compound, the T/C (dose: 400.0 mg/kg/injection, schedule: Q04DX002 (ip), vehicle: saline with Tween-80) was 89 % of control.
In the case of `CNC(=O)Nc1c(C)cccc1Cl`, the T/C [4] is reported as 94 % of control, the T/C [5] is reported as 95 % of control and the T/C [6] is reported as 105 % of control.
`CN1CCC(C=C2c3ccccc3CCc3ccccc32)C1` (stereo unspecified) was tested, and the T/C (dose: 3.12 mg/kg/injection, schedule: Q01DX009 (ip), vehicle: saline) was 100 % of control, the T/C (dose: 6.25 mg/kg/injection, schedule: Q01DX009 (ip), vehicle: saline) was 92 % of control and the T/C (dose: 12.5 mg/kg/injection, schedule: Q01DX009 (ip), vehicle: saline) was 100 % of control. For the same compound, the T/C (dose: 25.0 mg/kg/injection, schedule: Q01DX009 (ip), vehicle: saline) was 98 % of control.
In the case of `CC1CCCCN1C(=O)CCCCl` (stereo unspecified), the T/C (dose: 100.0 mg/kg/injection, schedule: Q04DX002 (ip), vehicle: saline) is reported as 111 % of control, the T/C (dose: 200.0 mg/kg/injection, schedule: Q04DX002 (ip), vehicle: saline) is reported as 101 % of control and the T/C (dose: 400.0 mg/kg/injection, schedule: Q04DX002 (ip), vehicle: saline) is reported as 88 % of control.
For `CC(C)=C1C2CCC1C(CO)C2CO` (stereo unspecified), the T/C [4] was 95 % of control, the T/C [7] was 102 % of control and the T/C [5] was 102 % of control. The T/C [8] was 100 % of control, the T/C [6] was 104 % of control and the T/C [9] was 96 % of control.
For `Cc1ccc(NC(=O)/C=C\C(=O)O)cc1`, the T/C [4] was 103 % of control, the T/C [7] was 97 % of control and the T/C [5] was 108 % of control. The T/C [8] was 96 % of control, the T/C [6] was 91 % of control and the T/C [9] was 91 % of control.
With `CCCCCCCc1nc(/N=N/N(C)C)c(C(N)=O)[nH]1` the T/C (dose: 100.0 mg/kg/injection, schedule: Q04DX003 (ip), vehicle: saline with Tween-80) was 101 % of control, the T/C [10] was 91 % of control and the T/C (dose: 200.0 mg/kg/injection, schedule: Q04DX003 (ip), vehicle: saline with Tween-80) was 98 % of control. For the same compound, the T/C (dose: 400.0 mg/kg/injection, schedule: Q04DX003 (ip), vehicle: saline with Tween-80) was 110 % of control.
`NC1=NC(Cc2ccccc2)N(c2ccc(Cl)cc2)C(N)=N1` (stereo unspecified) was tested, and the T/C (dose: 14.0 mg/kg/injection, schedule: Q01DX009 (ip), vehicle: steriod suspending solution) was 98 % of control, the T/C (dose: 24.0 mg/kg/injection, schedule: Q01DX009 (ip), vehicle: steriod suspending solution) was 98 % of control and the T/C (dose: 39.0 mg/kg/injection, schedule: Q01DX009 (ip), vehicle: steriod suspending solution) was 98 % of control. The T/C (dose: 65.0 mg/kg/injection, schedule: Q01DX009 (ip), vehicle: steriod suspending solution) was 96 % of control.
In the case of `CCN(CC)CCN1C(=O)C(C)C=C(C)C=C1C` (stereo unspecified), the T/C (dose: 9.0 mg/kg/injection, schedule: Q04DX003 (ip), vehicle: other) is reported as 97 % of control, the T/C (dose: 18.0 mg/kg/injection, schedule: Q04DX003 (ip), vehicle: other) is reported as 92 % of control and the T/C (dose: 19.0 mg/kg/injection, schedule: Q01DX009 (ip), vehicle: other) is reported as 105 % of control. For the same compound, the T/C (dose: 38.0 mg/kg/injection, schedule: Q01DX009 (ip), vehicle: other) was 105 % of control, the T/C (dose: 75.0 mg/kg/injection, schedule: Q01DX001 (ip), vehicle: other) was 100 % of control and the T/C (dose: 75.0 mg/kg/injection, schedule: Q01DX009 (ip), vehicle: other) was 105 % of control. The T/C (dose: 75.0 mg/kg/injection, schedule: Q04DX003 (ip), vehicle: other) was 91 % of control.
For `CCC(N)(CC)C(=O)O`, the T/C (dose: 50.0 mg/kg/injection, schedule: Q01DX009 (ip), vehicle: saline) was 102 % of control, the T/C [11] was 98 % of control and the T/C [12] was 95 % of control.
In the case of `COc1cc(CC(C(=O)OC(C)(C)C)C(=O)OC(C)(C)C)cc(OC)c1OC`, the T/C (dose: 50.0 mg/kg/injection, schedule: Q01DX001 (ip), vehicle: carboxymethylcellulose (CMC)) is reported as 101 % of control, the T/C (dose: 100.0 mg/kg/injection, schedule: Q01DX001 (ip), vehicle: carboxymethylcellulose (CMC)) is reported as 97 % of control and the T/C (dose: 200.0 mg/kg/injection, schedule: Q01DX001 (ip), vehicle: carboxymethylcellulose (CMC)) is reported as 97 % of control. For the same compound, the T/C (dose: 400.0 mg/kg/injection, schedule: Q01DX001 (ip), vehicle: carboxymethylcellulose (CMC)) was 109 % of control.
`Cc1cnc(Cl)nc1N1CC1` was tested, and the T/C (dose: 1.0 mg/kg/injection, schedule: Q01DX Z (ip), vehicle: methylcellulose (MC)) was 91 % of control.
With `C1COC(C2OCCO2)C1` (stereo unspecified) the T/C [11] was 103 % of control, the T/C [12] was 90 % of control and the T/C (dose: 400.0 mg/kg/injection, schedule: Q01DX009 (ip), vehicle: saline) was 95 % of control.
With `c1ccc2sccc2c1` the T/C (dose: 100.0 mg/kg/injection, schedule: Q01DX009 (ip), vehicle: saline with Tween-80) was 110 % of control, the T/C [10] was 111 % of control and the T/C (dose: 400.0 mg/kg/injection, schedule: Q01DX009 (ip), vehicle: saline with Tween-80) was 116 % of control.
In the case of `CCOC(=O)Nc1cc(Cl)c2n[nH]nc2n1`, the T/C (dose: 25.0 mg/kg/injection, schedule: Q01DX005 (ip), vehicle: saline) is reported as 105 % of control, the T/C (dose: 50.0 mg/kg/injection, schedule: Q01DX005 (ip), vehicle: saline) is reported as 113 % of control and the T/C (dose: 100.0 mg/kg/injection, schedule: Q01DX005 (ip), vehicle: saline) is reported as 110 % of control.
For `CCSC1C(O)OC(CO)C(O)C1O` (stereo unspecified), the T/C [1] was 95 % of control, the T/C [2] was 106 % of control and the T/C [3] was 104 % of control.
In the case of `c1nc(Sc2ncnc3nc[nH]c23)c2[nH]cnc2n1`, the T/C (dose: 50.0 mg/kg/injection, schedule: Q01DX001 (ip), vehicle: saline) is reported as 108 % of control, the T/C (dose: 75.0 mg/kg/injection, schedule: Q01DX015 (ip), vehicle: saline) is reported as 114 % of control and the T/C [1] is reported as 104 % of control. The T/C (dose: 150.0 mg/kg/injection, schedule: Q01DX015 (ip), vehicle: other) was 213 % of control, the T/C [2] was 119 % of control and the T/C (dose: 238.0 mg/kg/injection, schedule: Q01DX001 (ip), vehicle: saline) was 115 % of control. The T/C (dose: 300.0 mg/kg/injection, schedule: Q01DX015 (ip), vehicle: other) was 176 % of control, the T/C (dose: 356.0 mg/kg/injection, schedule: Q01DX001 (ip), vehicle: saline) was 117 % of control and the T/C (dose: 600.0 mg/kg/injection, schedule: Q01DX015 (ip), vehicle: other) was 108 % of control. The T/C (dose: 600.0 mg/kg/injection, schedule: Q01DX015 (ip), vehicle: saline) was 117 % of control.
`CCCCCCCCCC(=O)NO` was tested, and the T/C (dose: 25.0 mg/kg/injection, schedule: Q04DX003 (ip), vehicle: saline) was 102 % of control, the T/C (dose: 50.0 mg/kg/injection, schedule: Q04DX003 (ip), vehicle: saline) was 98 % of control and the T/C (dose: 100.0 mg/kg/injection, schedule: Q01DX001 (ip), vehicle: other) was 97 % of control. For the same compound, the T/C [11] was 87 % of control, the T/C [7] was 93 % of control and the T/C (dose: 100.0 mg/kg/injection, schedule: Q04DX003 (ip), vehicle: saline) was 86 % of control and 92 % of control. For the same compound, the T/C (dose: 200.0 mg/kg/injection, schedule: Q01DX001 (ip), vehicle: other) was 97 % of control, the T/C [12] was 98 % of control and the T/C [8] was 93 % of control. For the same compound, the T/C (dose: 200.0 mg/kg/injection, schedule: Q04DX003 (ip), vehicle: saline) was 88 % of control, the T/C (dose: 400.0 mg/kg/injection, schedule: Q01DX001 (ip), vehicle: other) was 95 % of control and the T/C [9] was 91 % of control. For the same compound, the T/C (dose: 400.0 mg/kg/injection, schedule: Q04DX003 (ip), vehicle: saline) was 86 % of control.
